Results as given in patent publication US12102685B2, “Immodulator peptides covalently modified with small molecules” (priority 2020, dated 2024).
Marks after values point to notes of the source that are not given here. Square brackets hold non-standard residues; d marks the D form. Ends that are not written are not given here. Peptide text beside a SMILES is read from it. * marks the point of attachment. RG108 = O=C1c2ccccc2C(=O)N1[C@@H](Cc1c[nH]c2ccccc12)C(=O)*

Tests used:
[1] = Strength of binding to iron, plate assay (x2E b); settings: 1 ug/well peptide complexed to Alexa-488-streptavidin; ferric iron
Experimental: Immodulator peptides were extended C-terminally by three amino acids, to include a valine residue that is highly conserved in the “thyroglobulin type 1 motif”. The reasoning behind this attempt is that a longer conserved sequence might lead to a tighter fold overall, which might in turn result in increased metal-binding avidity. • (b) Strength of binding to iron was evaluated by plate assay.
(§1) Experiments were conducted by the procedure described above. Ferric iron-charged NTA-coated 96-well plates were used as described. 1 ug/well immodulator peptide complexed to Alexa-488-labeled streptavidin in PBS buffer was added (60 min at room temperature). The plate was washed and counted in a standard fluorometer (excitation/emission: 485/525 nm). The results (fluorescence) show improved iron-binding by the three peptides extended C-terminally by the AVD, (dA)VD, and FVS tripeptides. **p<0.01 vs IM3 control IM3: 200±29; IM4: 45±37**; IM5: 130±77; IM3AVD: 434±29**; IM3dAVD: 418±28**; IM3FVS: 371±33** • (c) Competition assay. The same procedure was used as the preceding experiment, except that 375 ng/well labeled IM3 peptide was used, plus 10× of the indicated unlabeled peptide. ‘No competing peptide’ control value was set to 100. *p<0.05 vs “no peptide” control Competing Peptide/Fluorescence • None: 100±38; IM4: 125±26; IM3: 63±27*; IM5: 40±14*; IM3AVD: 10±28* • (d) Competition assay. The same procedure was used as the preceding experiment, except that labeled IM3AVD peptide was used. **p<0.01 vs “no competing peptide” control • None: 100±9; IM4: 144±44; IM3: 35±16**; IM5: 30±19**; IM3AVD: 9±19** • (e) The same procedure was used as the preceding experiment, except that each peptide was labeled with Alexa-488-labeled streptavidin in PBS buffer and used separately. Binding to IM3 was set to =100. *p<0.05, **p<0.01 vs IM3 control. (Labeled Peptide/Fluorescence) IM1: 1.8±0.4**; IM2: 3.0±1.8**; IM3: 100.0±16.8; IM4: 7.2±1.7*; IM5: 86.7±6.4; IM6: 85.9±14.9; IM3AVD:137.7±11.8*; IM3dAVD:147.4±22.9*; IM3FVS: 101.5±10.5.

[2] = Iron binding of separately labeled peptides (x2E e); settings: each peptide labeled separately; IM3 = 100; ferric iron
Experimental: as §1

NF-kappa-B (NFkB) = assay: THP1-Dual monocyte reporter, NF-kappa-B readout (x4A); assay type: cell-based; settings: no peptide
Experimental: (§2) Immune modulation functions of immodulator peptides were measured using the monocyte reporter cell line THP1-Dual (Invivogen, San Diego, CA), which provides convenient readouts for STING and NF-kappa-B pathways. Optionally, succinic acid, cytokine and chemokine production were also measured. THP1-Dual cell line was obtained from Invivogen. Cells were grown in a T-75 flask in RPMI Medium containing 20% fetal bovine serum, blasticidin ([…]), zeocin ([…]) and penicillin-streptomycin at 37° C. in a humidified, 5% CO2 incubator. Cells ([…], 8,000 cells/well) were plated in a 96-well plate and incubated overnight at 37 °C in a humidified, 5% CO2 incubator. Next day, […] of compounds were added (quadruplicate wells). After 24 hour incubation with the compound, supernatants were harvested and stored at 4° C. prior to assay.
(§3) Each cell supernatant was assayed in quadruplicate. 20 uL of supernatant was used to measure NF-kappa-B (NFkB) and
(§4) STING activity using reagents QuantiBlu and QuantiLuc respectively, according to the manufacturer's recommendations (Invivogen, San Diego, CA). Succinic acid was measured by using a kit from Megazyme Inc (Cambridge, MA). Control value of activity was set to 100 in each assay. […] PAM3C=25 ng/ml PAM3CSK4 (TLR1/2 inducer); Poly(I:C)=10 ug/ml (TLR3 inducer); PAM2C=25 ng/ml PAM2CSK4 (TLR2/6 inducer); KIN14=4 uM KIN-1400 (RIG-I inducer); cytB=1 uM cytosporone B (Nur77 inducer); C-178=1 uM STING inhibitor; NFkBi=50 ug/ml NFkB inhibitor peptide; SB2021=10 uM p38MAPK inhibitor; *p<0.05, **p<0.01 vs IM3 control; #p<0.01 vs “no inducer” control; SUCC=succinic acid; nd=not done; Peptide was added to cells at 400 nM.
(§5) Peptides were added to cells at 400 nM. […]

THP1-Dual monocytes = assay: Succinic acid in THP1-Dual supernatant (x4A); assay type: cell-based; settings: no peptide
Experimental: as §2, §4, §5

STING = assay: THP1-Dual monocyte reporter, STING readout (x4A); assay type: cell-based; settings: no peptide
Experimental: as §2, §3, §4, §5

A375 cells = assay: A375 cell viability, CellTiterGlo (x10A); assay type: cell-based; settings: 72 hours
Experimental: (§6) Immune modulation functions of immodulator peptides have great potential untility in the field of cancer. A375 cell line was obtained from American Type Culture Collection (ATCC). They were grown in a T-75 flask in DMEM Medium containing 10% fetal bovine serum and penicillin-streptomycin at 37° C. in a humidified, 5% CO2 incubator. Cells ([…], 2,000 cells/well) were plated in a 96-well plate and incubated overnight at 37° C. in a humidified, 5% CO2 incubator. Next day, […] of compounds were added (quadruplicate wells). After 72 hour incubation with the compound, cell viability was measured in a luminometer after the addition of […] CellTiterGlo reagent (Promega Inc, Madison, WI) as recommended by the manufacturer.
Experiment x10A. Anti-cancer activity of immodulator peptides on A375 cells. A 96-well plate was seeded with 2,000 A375 cells per well in DMEM medium containing 10% FBS and PenStrep. After 24 hrs at 37 deg C., compounds and peptides were added (each treatment done in quadruplicate). After a further 72 hours incubation, 100 uL/well of CTG assay reagent purchased from Promega Inc. (Madison, WI) was added. Plate was read after 10 minutes, as recommended by the manufacturer. Peptides were added at 2 uM. The results of this experiment are shown below, expressed as percent survival ofA375 cells.

[3] = tested on: COL1 in HFF-1 dermal fibroblasts; assay: Collagen-1 ELISA in HFF-1 dermal fibroblasts (x11A); assay type: cell-based; settings: peptide 2 uM, 72 hour; control (buffer) = 100
Experimental: as §6, with “have” for “have great”, “cosmetics. HFF-1” for “cancer. A375”, “Cells” for “They”, “compound, supernatants were collected for Collagen-1 ELISA assay and” for “compound,”
Collagen stimulating activity of immodulator peptides in HFF-1 dermal fibroblasts. Peptides were added to cells at 2 uM. COL1 immunoreactivity was measured in the supernatants of cultured cells by ELISA using a rabbit monoclonal anti-COL1 primary antibody (Abcam, Cambridge, MA). Control (buffer) value of immunoreactivity was set to 100.

[4] = Competition binding assay to metal-charged NTA-coated plates (x2B b); settings: PBS on calcium = 100
Experimental: NTA-metal-affinity fluorescence assay was performed using 96-well NTA-metal-coated plates readily available from commercial sources such as Qiagen (Germantown, MD). NTA was charged with ferrous or ferric iron, zinc, copper, calcium, vanadium, ruthenium, cobalt, titanium, manganese or other metals. 400 ng of FITC-labeled immodulator peptide (or biotinylated immodulator peptide complexed to Alexa-488-labeled streptavidin) in PBS buffer was added per plate. After incubation at room temperature for 60 minutes, excess peptide was washed off and peptide was detected by measuring fluorescence (excitation 490 nm, emmission 525 nm) in a fluorometer. • (a) Using FITC-labeled IM3 peptide (1 ug/well) in the fluorescent binding assay: • EDTA-treated control: 2,251±1,186 • Ferrous iron: 170,441±11,264 (p<0.001)* • Copper: 13,644±5566 (p<0.05)* • Calcium: 48,822±11,990 (p<0.01)* • *p values are relative to EDTA-treated control • (b) Competition binding assay to ferrous iron, calcium, copper and zinc-charged NTA-coated plates using FITC-labeled IM3 peptide (0.5 uM) and 8× (4 uM) unlabelled competitor peptides IM3N1, IM3N2 (*all comparisons to PBS control are p<0.01); # fluorescent value of binding to […] was set at 100.

[5] = KIN1400 alone, IM3 + KIN1400 = 100
[6] = 25 ng/ml PAM2CSK4 alone, IM3 + PAM2C = 100
[7] = 25 ng/ml PAM3CSK4 alone, control = 100

In the case of `CC(C)[C@H](NC(=O)[C@H](Cc1ccccc1)NC(=O)[C@H](Cc1c[nH]c2ccccc12)NC(=O)[C@H](CS)NC(=O)[C@H](Cc1ccccc1)NC(=O)CNC(=O)[C@H](CCCNC(=N)N)NC(=O)[C@H](CCCCN)NC(=O)[C@H](CCCNC(=N)N)NC(=O)CNC(=O)[C@H](CCCCN)NC(=O)[C@H](CO)NC(=O)[C@@H]1CCCN1C(=O)[C@H](CCCNC(=N)N)NC(=O)[C@H](CS)NC(=O)[C@H](CCC(N)=O)NC(=O)[C@H](CCCCN)NC(=O)[C@H](CCCCN)NC(=O)[C@H](CCCCN)NC(=O)[C@H](Cc1ccc(O)cc1)NC(=O)[C@H](Cc1ccccc1)NC(=O)CNC(=O)[C@H](CCCCN)NC(=O)[C@@H](N)CCCCN)C(=O)N[C@@H](CO)C(=O)O` [IM3FVS] (H-KKGFYKKKQCRPSKGRKRGFCWFVS-OH; N-terminus and C-terminus assumed), the “fluorescence (iron binding)” value [1] is reported as 371±33 and the “fluorescence of labeled peptide” value [2] is reported as 101.5±10.5.
For `Oc1c(C(Nc2nc3ccccc3s2)c2ccc(OC(F)F)cc2)ccc2cccnc12` (centres unmarked) [KIN1400, KIN-1400, reference compound], the NFkB (NF-kappa-B (NFkB); KIN1400 (RIG-I agonist) alone, IM3 + KIN1400 = 100) was 90.1, the SUCC (THP1-Dual monocytes; [5]) was 100.1 and the STING (STING; [5]) was 84.3**. The “percent survival of A375 cells” value (A375 cells; Kin1400 4 uM alone, no peptide) was 100.7%.
In the case of “(rg108)-KKGFYKKKQCRPSKGRKRGFCW (RG108-KKGFYKKKQCRPSKGRKRGFCW; cysteine pairing not given here) [IM3rg8, IM3 N-terminally conjugated with RG108]”, the “percent survival of A375 cells” value (A375 cells; peptide 2 uM + Kin1400 4 uM (RIG-I agonist)) is reported as 105.8% and the “percent survival of A375 cells” value (A375 cells; peptide 2 uM, Buffer) is reported as 89.9** percent.
For AFNSYELGSKGFYKKKQCRPSKGRKRGFCW [IM3K9], the “COL1 immunoreactivity in supernatant” value [3] was 155**.
For “AFNSYELGSKGFYKKKQCRPSKGRKRGFCWAVDKY [IM3K9c]”, the “COL1 immunoreactivity in supernatant” value [3] was 158**.
In the case of “AFNSYELGSKKGFYKKKQCRPSKGRKRGFCW [IM3K9.1]”, the “COL1 immunoreactivity in supernatant” value [3] is reported as 156**.
In the case of FNSYELGSLKKGFYKKKQCRPSKGRKRGFCW [IM3K8], the “COL1 immunoreactivity in supernatant” value [3] is reported as 98.
With “KKGFYKKKQCRPSKGRKRGFCW(dA)VD (KKGFYKKKQCRPSKGRKRGFCW[dA]VD; cysteine pairing not given here) [IM3dAVD, IM3 extended C-terminally by (dA)VD]” the “fluorescence (iron binding)” value [1] was 418±28 and the “fluorescence of labeled peptide” value [2] was 147.4±22.9.
In the case of PAM2CSK4 [reference compound], the NFkB (NF-kappa-B (NFkB); [6]) is reported as 118.7**, the SUCC (THP1-Dual monocytes; [6]) is reported as 121.5* and the STING (STING; [6]) is reported as 144.5**.
In the case of PAM3CSK4 [reference compound], the NFkB (NF-kappa-B (NFkB); [7]) is reported as 326 # and the STING (STING; [7]) is reported as 342 #.
With “TGPSESYLQLEELVKQVVSKGFYKKKQCRPSKGRKRGFCW [IM3N2]” the “FITC-IM3 fluorescence with competitor” value ([4]; Calcium, 0.5 uM FITC-IM3, 8x (4 uM) unlabelled competitor) was 12.9 ± 1.2*, the “FITC-IM3 fluorescence with competitor” value ([4]; Copper, 8x (4 uM) unlabelled competitor) was 5.1 ± 1.0* and the “FITC-IM3 fluorescence with competitor” value ([4]; Ferrous iron, 8x (4 uM) unlabelled competitor) was 25.2 ± 9.5*. For the same compound, the “FITC-IM3 fluorescence with competitor” value ([4]; Zinc, 8x (4 uM) unlabelled competitor) was 13.4 ± 1.6*.
